Measurements published in US9598677B2, “Use of human biliverdin reductase and fragments thereof for the treatment of protein kinase C-delta and ERK related conditions” (University of Rochester, priority 2009, dated 2017).
Ends that are not written are not given here. * marks the point of attachment. Myristoyl = CCCCCCCCCCCCCC(=O)*

Tests used:
PKC-δ [1] = molecular target: T1, PKC-δ (Homo sapiens, UniProt Q05655); experiment: PKC-δ activity assay in situ in 293A cells; type: cell-based; parameters: The human PKC-δ open reading frame was also cloned in the same vectors; expressed in transfected cells; host or cells: HEK 293A; settings: 20 μM, added 30 min prior to treatment, FIG. 3C
T1 sequence (Q05655 whole entry): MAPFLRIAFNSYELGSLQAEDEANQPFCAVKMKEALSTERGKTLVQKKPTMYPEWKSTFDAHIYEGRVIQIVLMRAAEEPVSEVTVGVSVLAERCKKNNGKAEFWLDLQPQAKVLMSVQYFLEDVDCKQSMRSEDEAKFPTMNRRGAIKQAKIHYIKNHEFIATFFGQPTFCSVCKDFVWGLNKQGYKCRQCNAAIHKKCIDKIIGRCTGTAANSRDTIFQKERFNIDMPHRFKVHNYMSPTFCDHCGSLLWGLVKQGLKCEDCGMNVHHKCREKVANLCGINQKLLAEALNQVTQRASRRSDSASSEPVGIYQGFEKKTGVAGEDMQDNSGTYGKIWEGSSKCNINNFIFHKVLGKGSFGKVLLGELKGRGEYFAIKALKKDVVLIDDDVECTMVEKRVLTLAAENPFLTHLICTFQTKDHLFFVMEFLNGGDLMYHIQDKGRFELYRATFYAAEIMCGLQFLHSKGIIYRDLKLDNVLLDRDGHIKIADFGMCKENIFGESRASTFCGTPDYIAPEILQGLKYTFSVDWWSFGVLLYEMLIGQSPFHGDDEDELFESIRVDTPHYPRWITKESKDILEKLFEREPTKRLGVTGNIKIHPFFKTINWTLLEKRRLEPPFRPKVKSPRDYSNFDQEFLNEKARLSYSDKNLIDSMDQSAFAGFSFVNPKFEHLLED
Method: The PKC-δ activity assay in situ was performed by a modification of procedures detailed by Williams and Schrier (Williams et al., Glucose-Induced Protein Kinase C Activity Regulates Arachidonic Acid Release and Eicosanoid Production by Cultured Glomerular Mesangial Cells,” J. Clin. Invest. 92:2889-2896 (1993), which is hereby incorporated by reference in its entirety). Cells were seeded into 48-well plates and transfected with 0.1 μg/well pcDNA3-hBVR. After 24 h, the medium was replaced with a starvation medium (0.1% serum) and incubation continued for another 24 h to synchronize cells. In some wells, PKC inhibitor Rottlerin (20 μM) was added 30 min before addition of PMA (100 nM) for 15 min. In some wells, hBVR-derived peptides were introduced to cells in their myristoylated form. Cells were washed with medium and incubated for 10 min at 30° C. in 50 μl of kinase assay buffer (137 mM NaCl, 5.4 mM KCl, 10 mM MgCl2, 0.3 mM Na2HPO4, 0.4 mM KH2PO4, 25 mM β-glycerophosphate, 5.5 mM D-glucose, 5 mM EGTA, 1 mM CaCl2, 20 mM HEPES (pH 7.2), 50 μg/ml digitonin, 120 μg/ml of PKC-δ specific substrate (ARRKRKGSFFGG; SEQ ID NO: 52) and 100 μM ATP labeled with 10 μCi/ml [γ-^32P]-ATP). The reaction was stopped with the addition of 25 μl of ice-cold 30% (wt/vol) TCA. The TCA-soluble fraction samples were transferred to p81 phospho-cellulose filters. […]

hBVR and PKC-δ = molecular target: T2, hBVR and PKC-δ (Homo sapiens, UniProt Q05655); experiment: Co-immunoprecipitation of hBVR and PKC-δ (anti-HA); type: cell-based; settings: myristoylated peptide 2 h, then IGF-1, FIG. 9B
T2 construct: The human PKC-δ open reading frame was amplified by PCR from a human brain cDNA library; expressed in transfected cells; host or cells: HEK293A
T2 sequence (Q05655 whole entry): as above
Method: (§1) Immunoprecipitation was performed on cell lysates prepared as described previously (Lerner-Marmarosh et al., “Regulation of TNF-alpha-Activated PKC-zeta Signaling By the Human Biliverdin Reductase: Identification of Activating and Inhibitory Domains of the Reductase,” FASEB J. 21:3949-3962 (2007), which is hereby incorporated by reference in its entirety). Immunoprecipitates were separated by SDS PAGE, and the proteins blotted to nitrocellulose membrane. The antibodies used for precipitation and for probing the membranes are as described in the specific figure legends.
(§2) Cell Culture, infection, transfection, and co-immunoprecipitation: HEK293A cells were grown and transfected with pcDNA3-HA-hBVR or pcDNA3-PKC-δ plasmids using conditions described elsewhere (Kravets et al., “Biliverdin Reductase, a Novel Regulator for Induction of Activating Transcription Factor-2 and Heme Oxygenase-1,” J. Biol. Chem. 279(19):19916-19923 (2004); Maines et al., “Human Biliverdin Reductase, a Previously Unknown Activator of Protein Kinase C BetaII,” J. Biol. Chem. 282(11):8110-8122 (2007), which are hereby incorporated by reference in their entirety), and overexpression was confirmed by western blotting. […]

PKC-δ and ERK1/2 = molecular target: T3, PKC-δ and ERK1/2 (Homo sapiens, UniProt P27361+P28482+Q05655); experiment: Co-immunoprecipitation of PKC-δ and ERK1/2 (anti-ERK1/2); type: cell-based; settings: myristoylated peptide, IGF-1, FIG. 9D
T3 construct: The human PKC-δ open reading frame was amplified by PCR from a human brain cDNA library; expressed in transfected cells; host or cells: HEK293A (PKC-δ transfected; ERK1/2 endogenous)
T3 sequence (Q05655 whole entry): as above
T3 sequence (P27361 2-379 limits assumed): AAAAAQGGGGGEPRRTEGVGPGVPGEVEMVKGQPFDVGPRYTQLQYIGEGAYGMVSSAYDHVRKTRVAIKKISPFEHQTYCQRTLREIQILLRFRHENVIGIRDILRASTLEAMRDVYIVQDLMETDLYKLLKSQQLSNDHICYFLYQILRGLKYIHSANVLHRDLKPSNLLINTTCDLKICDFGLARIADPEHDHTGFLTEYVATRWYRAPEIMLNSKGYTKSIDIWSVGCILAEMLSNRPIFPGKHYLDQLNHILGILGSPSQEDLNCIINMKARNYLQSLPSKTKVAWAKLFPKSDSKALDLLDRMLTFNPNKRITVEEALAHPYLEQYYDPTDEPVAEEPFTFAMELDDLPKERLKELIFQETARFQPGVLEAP
T3 sequence (P28482 2-360 limits assumed): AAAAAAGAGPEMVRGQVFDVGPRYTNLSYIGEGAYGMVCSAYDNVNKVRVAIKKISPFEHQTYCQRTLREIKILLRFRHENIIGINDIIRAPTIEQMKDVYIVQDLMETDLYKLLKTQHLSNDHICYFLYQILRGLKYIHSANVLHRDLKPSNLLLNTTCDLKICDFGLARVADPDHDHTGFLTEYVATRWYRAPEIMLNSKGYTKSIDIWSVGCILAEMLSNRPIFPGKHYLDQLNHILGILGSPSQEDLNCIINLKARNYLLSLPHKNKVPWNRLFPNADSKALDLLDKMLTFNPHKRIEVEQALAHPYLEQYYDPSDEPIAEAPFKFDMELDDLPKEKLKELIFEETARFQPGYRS
Method: as §1, §2

recombinant human PKC-δ = experiment: PKC-δ kinase assay in vitro (p81 filter / autoradiography); type: biochemical; settings: for phosphorylation of variant peptides as PKC-δ substrates: FIG. 4C; for phosphate incorporated into hBVR-derived peptides by PKC-δ: 10 μM peptide, 30 min at 30° C., FIG. 6C
Method: Measurement of PKC-δ activity: In vitro kinase activity assays were performed with active recombinant human PKC-δ kinase (as a GST fusion protein). PKC-δ assay in vitro was performed using 5 ng purified enzyme in a 50 μl assay containing 50 mM HEPES pH 7.4, 10 mM MgCl2, 0.2 mM DTT, sonicated lipid activators (0.5 μg phosphatidylserine and 0.05 μg diacylglycerol) or lipid activators plus PMA (as indicated in appropriate experiments) and PKC-δ substrates. The reaction was started by the addition of 50 μM ATP labeled with 5 μCi [γ-^32P]-ATP. Incubation was performed for 15 min at 30° C., unless otherwise stated. The reaction was terminated on ice, either by the addition of Laemmli buffer followed by SDS-PAGE, transferred to PVDF membrane, and autoradiography, or by the addition of 1 volume 10% phosphoric acid for p81 transfer as described below. For autophosphorylation of PKC-δ 20 μM ATP was used to start the 40-min reaction.
When hBVR or its mutants were tested for their effect on PKC-δ activity, they were pre-incubated for 5 min at room temperature with the PKC prior to substrate addition. The hBVR-derived peptides were used at concentrations indicated in appropriate figures.
When hBVR or its mutants were assayed as the sole substrates for PKC, the incubation conditions were as described above and the incubation was for 40 min at 30° C. unless specified otherwise. The reaction was terminated by the addition of Laemmli buffer, and the reaction products were detected by SDS-PAGE, transfer to PVDF membrane, and autoradiography.
Measurement of PKC-δ activity: PKC-δ assay in vitro was performed using 0.1 ng/μl purified recombinant human PKC-δ kinase with reaction conditions specified by the manufacturer. Effector molecules such as hBVR or peptides were added 5 min prior to substrate. The reaction was started by the addition of [γ-^32P]-ATP (Lerner-Marmarosh et al., “Human Biliverdin Reductase: A Member of the Insulin Receptor Substrate Family with Serine/Threonine/Tyrosine Kinase Activity,” Proc. Natl. Acad. Sci. U.S.A. 102(20):7109-7114 (2005), which is hereby incorporated by reference in its entirety). Reaction products were detected either by gel electrophoresis and autoradiography or by the p81 filter assay. PKC-δ activity on agarose beads was also measured. Cell lysates were immunoprecipitated with anti-PKC-δ antibody followed by protein A/G agarose. The immunoprecipitates were used in kinase reactions containing 50 μM PKC-δ specific peptide substrate as above; incorporation of ^32P was measured by p81 method.

PKC-δ [2] = molecular target: T1, PKC-δ; experiment: PMA-induced PKC-δ membrane translocation, confocal microscopy; type: cell-based; parameters: inserting the open reading frame of PKC-δ into the plasmid pDsRed2-C1; expressed in transfected cells; host or cells: 293A; settings: 10 μM myristoylated peptide, PMA 15 min, FIG. 5E
Method: Confocal microscopy: Experimental protocols were based on those described by Edwards et al., “Carboxyl-Terminal Phosphorylation Regulates the Function and Subcellular Localization of Protein Kinase C betall,” J. Biol. Chem. 274:6461-6468 (1999), which is hereby incorporated by reference in its entirety. 293A cells were grown in a chamber slide system (Nalge-Nunc International Corp., Naperville, Ill.). Cells were transfected with pEGFP-hBVR and/or the plasmid expressing Ds2-Red-PKC-δ fusion protein. After a 24 h starvation period, cells were fixed for 10 min in 4% Para-formaldehyde in PBS and permeabilized with 1% Triton X-100 in PBS. The cells were mounted with Vectashield (Vector Laboratories, Inc. Burlingame, Calif.), containing DAPI to visualize the nuclei. Non-transfected cells were permeabilized as above, treated with 1:150 dilution of polyclonal anti-PKC-δ antibodies, washed, blocked, and then treated with polyclonal anti-hBVR antibodies. The PBS-washed cells were then treated with Rhodamine-red-conjugated donkey anti-rabbit IgG antibodies (Jackson ImmunoResearch, West Grove, Pa.) for 30 min, followed by mounting. A Leica TCS SP (model DMRE) confocal microscope was used (Maines et al., “Human Biliverdin Reductase: A Previously Unknown Activator of Protein Kinase C-βII,” J. Biol. Chem. 282:8110-8122 (2007), which is hereby incorporated by reference in its entirety).

Compound: CC(=O)c1c(O)c(C)c(O)c(Cc2c(O)c3c(c(C(=O)/C=C/c4ccccc4)c2O)OC(C)(C)C=C3)c1O [Rottlerin, reference compound]
- PKC-δ activation by PMA and hBVR in cells overexpressing the kinase (PKC-δ [1]): significant reduction

Compound: FGFPAFSG (BVR peptide) [hBVR-derived hydrophobic (C-box) peptide]
- association between hBVR and PKC-δ, effect of peptide (hBVR and PKC-δ): completely blocked
- association of PKC-δ and ERK1/2, effect of peptide (PKC-δ and ERK1/2): inhibitory

Compound: GLAANAYLSFHFK (BVR peptide) [second variant of the aa222-234 peptide, upstream lysine and arginine residues replaced by alanine]
- phosphorylation of variant peptides as PKC-δ substrates (recombinant human PKC-δ): not a substrate

Compound: GLKRNRYLAFHFK (BVR peptide) [aa222-234 peptide with target serine replaced by alanine]
- phosphorylation of variant peptides as PKC-δ substrates (recombinant human PKC-δ): not a substrate

Compound: GLKRNRYLAFHFKSGSL (BVR peptide) [alanine-mutant peptide (hBVR aa222-238), longer alanine-mutant peptide that includes two additional serines]
- phosphorylation of variant peptides as PKC-δ substrates (recombinant human PKC-δ): markedly decreased phosphorylation

Compound: KKRILHCLGLA (BVR peptide) [hBVR-derived D-box peptide]
- association between hBVR and PKC-δ, effect of peptide (hBVR and PKC-δ): slight decrease in binding
- association of PKC-δ and ERK1/2, effect of peptide (PKC-δ and ERK1/2): failed to block

Compound: SFHFKSGSL (Myristoyl-SFHFKSGSL) [hBVR-based peptide aa230-238]
- inhibition of phosphorylation of the commercial substrate (recombinant human PKC-δ; 50 μM substrate/10 μM inhibitor, FIG. 5A): clearly differed
- PKC-δ translocation to the cell membrane upon PMA (PKC-δ [2]): did not significantly affect

Compound: aa290-296: hBVR-derived peptide containing S294 in consensus PKC phosphorylation motif (KYCCSRK; UniProt P53004 290-296, looked up, fragment)
- phosphate incorporated into hBVR-derived peptides by PKC-δ (recombinant human PKC-δ): several fold increase

Compound: hBVR aa18-23: hBVR-derived peptide containing S21 in consensus PKC phosphorylation motif (RAGSVR; UniProt P53004 18-23, looked up, fragment)
- phosphate incorporated into hBVR-derived peptides by PKC-δ (recombinant human PKC-δ): several fold increase
